{"source": "patent US9938292B2", "about": "(GUANGDONG ZHONGSHENG PHARMACEUTICAL CO., LTD, priority 2014, dated 2018)"}
{"test_system": "Hedgehog signaling pathway", "experiment": "Gli-Luc luciferase reporter gene assay in C3H10T1/2/Gli-Luc cells under Shh-N stimulation", "assay_type": "cell-based", "settings": "24 h, luciferase RLU, read-out: biological activity: IC50 of the inhibitory activities of compounds on the hedgehog pathway", "from_the_text": "(§1) The luciferase (Gli-Luc) reporter gene with Gli response element was transfected into C3H10T1/2 cells, under Shh-N stimulation conditions, determine the Hedgehog signaling pathway inhibitors through the detection of gene expression in cell activity report. In this study, we evaluated the inhibitory effects of compounds on Hedgehog signaling pathway in the IC50 value of the compound as an index.\n(§2) Cell lines: C3H10T1/2/Gli-Luc stable cell line • C3H10T1/2/Gli-Luc Cell culture medium (DMEM/high glucose HyClone, #SH30022.01B; 10% serum Hyclone, #SV30087; 0.4% Hygromycin B Roche, #13398200) • 0.25% Trypsin-EDTA (Gibco, #25200)\n(§3) Shh-N, HEK293/SHH-N stable cell culture supernatant\n(§4) Inoculate the logarithmic growth phase of C3H10T1/2/Gli-Luc cells into a 96-well culture plate with 20000 cells per well, cells were cultured in a 37° C., 5% CO2 incubator overnight. The next day, the compounds were diluted in the following ways: the positive compound GDC0449 (1 mM) and the compounds (1 mM) to be measured were serially diluted to 7 concentrations by DMSO according to 1:3 and 1:10 respectively, the eighth is for DMSO control, and then diluted with fresh medium 100 times. The medium of the cells cultured overnight was removed, 80 μL fresh culture medium was added per well, then 20 μL gradiently diluted positive compound and compounds to be measured and 100 μL 30 nM Shh-N containing conditioned medium were added, each concentration repeated 2 wells, at the same time, positive and negative reference well were set (i.e. Shh Ctrl: 80 μL fresh medium+20 μL 1% DMSO containing medium+100 μL 30 nM Shh-N containing conditioned medium; Unstimulated Ctrl: 180 μL fresh medium+20 μL 1% DMSO containing medium), cells were cultured in the incubator for further 24 h.\n(§5) Intracellular luciferase activity detection: take the cells out of 96-well plate, discard the culture medium, the cells were washed with PBS twice, then each well added with 20 μL lysate (Promega E1531), oscillate pyrolysis at room temperature for 30 min. 5 μL cell lysates were transferred to 384-well plate (Greiner 781074), then each well was added with 25 μL luciferase reaction liquid (Promega E1501), after rapid mixed, immediately placed into the VarioSkan Flash multi-function reading instrument to read the relative light units (RLU) value.\n(§6) Data analysis: using Prism's GraphPad 5 for data analysis. RLU reading to the logarithmic mapping of compound concentration on behalf of luciferase activity, and then curve fitting using the following equation to give IC50 value, Y (RLU)=minimum+(maximum−minimum)/(1+10^(log of compound concentration−Log IC50)).", "units": {"IC50": "nM"}}
{"smiles": "COc1c(-c2cnc(N3C[C@@H](C)O[C@@H](C)C3)cc2C)cnc2c(-c3ccc(C#N)cc3)cccc12", "note": "[Embodiment 167]", "IC50": "≤ 50"}
{"test_system": "Hedgehog signaling pathway", "experiment": "Gli-Luc luciferase reporter gene assay in C3H10T1/2/Gli-Luc cells under Shh-N stimulation", "assay_type": "cell-based", "settings": "Mus musculus, C3H 10T1/2, 24 h, luciferase RLU, read-out: biological activity: IC50 of the inhibitory activities of compounds on the hedgehog pathway", "from_the_text": "as §1, §2, §3, §4, §5, §6", "units": {"IC50": "nM"}}
{"smiles": "COc1c(-c2ccc(N3C[C@H](C)C[C@H](C)C3)cc2)cnc2c(-c3ccc(C#N)cc3)cccc12", "note": "[Embodiment 113]", "IC50": "≤ 50"}
{"smiles": "Cc1cn(-c2ccc(N3CC(C)N(C(=O)C4CC4)C(C)C3)cc2)c(=O)c2cccc(-c3ccc(C#N)cc3)c12", "note": "(stereo not drawn) [Embodiment 26]", "IC50": "50 to 100"}
{"smiles": "COc1c(-c2ccc(N3C[C@@H](C)O[C@@H](C)C3)nc2)cnc2c(-c3ccc(C#N)cc3)cccc12", "note": "[Embodiment 158, 4-(3-(6-((2S,6R)-2,6-dimethylmorpholino)pyridin-3-yl)-4-methoxyquinolin-8-yl) benzonitrile]", "IC50": "≤ 50"}
{"smiles": "COc1c(-c2ccc(N3C[C@@H](C)O[C@@H](C)C3)cc2)c(C(F)(F)F)nc2c(-c3ccc(C#N)cc3)cccc12", "note": "[Embodiment 141, 4-(3-(4-((2S,6R)-2,6-dimethylmorpholino)phenyl)-4-methoxy-2-(trifluoromethyl)quinolin-8-yl)benzonitrile]", "IC50": "100 to 500"}
{"smiles": "C[C@@H]1CN(c2ccc(-n3ccc4c(-c5ccc(C#N)cc5)cccc4c3=O)cc2C2CC2)C[C@H](C)O1", "note": "[Embodiment 80, 4-(2-(3-cyclopropyl-4-((2S,6R)-2,6-dimethylmorpholino)phenyl)-1-oxo-1,2-dihydroisoquinolin-5-yl)benzonitrile]", "IC50": "1000 to 5000"}
{"smiles": "COC(=O)N1[C@H](C)CN(c2ccc(-c3cnc4c(-c5ccc(C#N)cc5)cccc4c3OC)cn2)C[C@@H]1C", "note": "[Embodiment 196]", "IC50": "100 to 500"}
{"smiles": "C[C@@H]1CN(c2ccc(-c3cnc4c(-c5ccc(C#N)cc5)cccc4c3Cl)cc2)C[C@H](C)O1", "note": "[Embodiment 118, 4-(4-chloro-3-(4-((2S,6R)-2,6-dimethylmorpholino)phenyl)quinolin-8-yl)benzonitrile]", "IC50": "50 to 100"}
{"smiles": "COc1c(-c2ccc(N3C[C@@H](C)O[C@@H](C)C3)cc2)cnc2c1CCCC2(OC)c1ccc(C#N)cc1", "note": "(stereo partly drawn) [Embodiment 157, 4-(3-(4-((2S,6R)-2,6-dimethylmorpholino)phenyl)-4,8-dimethoxy-5,6,7,8-tetrahydroquinolin-8-yl)benzonitrile]", "IC50": "1000 to 5000"}
{"smiles": "COc1c(-c2ccc(N3C[C@@H](C)O[C@@H](C)C3)nn2)cnc2c(-c3ccc(C#N)cc3)cccc12", "note": "[Embodiment 175, 4-(3-(6-((2S,6R)-2,6-dimethylmorpholino)pyridazin-3-yl)-4-methoxyquinolin-8-yl) benzonitrile]", "IC50": "100 to 500"}
{"smiles": "C[C@@H]1CN(c2ccc(-c3cnc4c(-c5ccc(C#N)cc5)cccc4c3S(C)(=O)=O)cc2)C[C@H](C)O1", "note": "[Embodiment 120, 4-(3-(4-((2S,6R)-2,6-dimethylmorpholino)phenyl)-4-(methylsulfonyl)quinolin-8-yl) benzonitrile]", "IC50": "500 to 1000"}
{"smiles": "CNC(=O)c1ccc(-c2cccc3c(OC)c(-c4ccc(N5C[C@@H](C)O[C@@H](C)C5)cc4)cnc23)cn1", "note": "[Embodiment 101]", "IC50": "100 to 500"}
{"smiles": "COc1c(-c2ccc(N3C[C@@H](C)N(C(=O)c4cccnc4)[C@@H](C)C3)cc2)cnc2c(-c3ccc(C#N)cc3)cccc12", "note": "[Embodiment 200]", "IC50": "≤ 50"}
{"smiles": "COc1c(N2CCN(C(=O)C3CC3)CC2)cnc2c(-c3ccc(C#N)cc3)cccc12", "note": "[Embodiment 248, 4-(3-(4-cyclopropanecarbonylpiperazin-1-yl)-4-methoxyquinolin-8-yl)benzonitrile]", "IC50": "≤ 50"}
{"smiles": "Cc1cc(C#N)ccc1-c1cccc2c(C3CC3)c(-c3ccc(N4C[C@@H](C)O[C@@H](C)C4)nc3)cnc12", "note": "[Embodiment 125]", "IC50": "≤ 50"}
{"smiles": "Cc1cn(-c2ccc(N3C[C@@H](C)O[C@@H](C)C3)cc2)c(=O)c2cccc(-c3ccc(Br)cc3)c12", "note": "[Embodiment 65]", "IC50": "500 to 1000"}
{"smiles": "Cc1cn(-c2ccc(N3C[C@@H](C)O[C@@H](C)C3)cc2)c(=O)c2ccnc(-c3ccc(C(F)(F)F)cc3)c12", "note": "[Embodiment 82]", "IC50": "1000 to 5000"}
{"smiles": "COc1c(N2CCN(S(=O)(=O)C(C)C)CC2)cnc2c(-c3ccc(C#N)cc3)cccc12", "note": "[Embodiment 249, 4-(4-methoxy-3-(4-(propane-2-sulfonyl)piperazin-1-yl)-quinolin-8-yl)benzonitrile]", "IC50": "≤ 50"}
